Assay results from patent US11771773B2, “Pharmaceutical preparation containing polyethylene gylcol loxenatide and preparation method thereof” (Jiangsu Hansoh Pharmaceutical Group Co., Ltd., priority 2016, dated 2023).

Key:
[1] = test system: normal rats
[2] = test system: type 2 diabetes db/db mice; details: injected subcutaneously once every three days

## polyethylene glycol loxenatide
[1]
  glucose-dependent insulinotropic function: Good glucose-dependent insulinotropic function
[2]
  body weight: reduced
  efficacy compared with Exenatide injected subcutaneously twice a day: comparable to that of Exenatide
  fasting blood glucose: significantly reduced
  glucose tolerance: improved
  random blood glucose: significantly reduced
  serum fructosamine levels: significantly reduced
